Test results taken from the supplement of paper PMC10627819.

How the values were obtained:
B. subtilis 168 [1] = test: fitness (endpoint OD595 vs no drug) (fraction); higher = more growth
Method in brief: (§1)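 Fitness compares growth at the stationary-phase transition with the robust mean of no-drug control wells, as a ratio of optical densities. The ratio is capped at 1. Wells of 384-well plates held 30 µl, or 55 µl for S. pneumoniae, inoculated at OD595 0.01. Readings at OD595 every 30 min for 14 h at 37 °C were corrected against the first reading.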

S. aureus DSM 20231 [2] = test: as above
Method in brief: as §1

S. aureus Newman [3] = test: as above
Method in brief: as §1

S. pneumoniae D39V [4] = test: as above
Method in brief: as §1

B. subtilis 168 [5] = test: Bliss interaction score (quartile over a dose matrix) (fitness difference); higher = more antagonism (negative = synergy)
Method in brief: (§2)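 Fitness was defined as normalised growth: OD595 at the start of stationary phase divided by the plate's robust no-drug mean and capped at 1. Single-drug fitness was inferred from combination measurements. The Bliss score is observed fitness minus the product of the single-drug values, summarised by quartiles across technical, biological and donor/recipient replicates.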

S. aureus DSM 20231 [6] = test: as above
Method in brief: as §2

S. aureus Newman [7] = test: as above
Method in brief: as §2

S. pneumoniae D39V [8] = test: as above
Method in brief: as §2
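For Bliss interaction score (quartile over a dose matrix) in this document: first quartile when negative (synergy) and third quartile when positive (antagonism).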
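For fitness (endpoint OD595 vs no drug) in this document: OD595 on entry to stationary phase over no-drug wells; at most 1.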

CO/N=C(\C(=O)N[C@@H]1C(=O)N2C(C(=O)O)=C(COC(C)=O)CS[C@H]12)c1csc(N)n1 [Cefotaxime] + COc1c(N2C[C@@H]3CCCN[C@@H]3C2)c(F)cc2c(=O)c(C(=O)O)cn(C3CC3)c12 [Moxifloxacin]
one replicate
Details | fitness
B. subtilis 168 [1], first compound 0.00775 µg/mL, partner 0.0312 µg/mL | 0.0585
B. subtilis 168 [1], first compound 0.00775 µg/mL, partner 0.0625 µg/mL | 0.0377
B. subtilis 168 [1], first compound 0.00775 µg/mL, partner 0.125 µg/mL | 0.0204
B. subtilis 168 [1], first compound 0.0155 µg/mL, partner 0.0312 µg/mL | 0.0281
B. subtilis 168 [1], first compound 0.0155 µg/mL, partner 0.0625 µg/mL | 0.0221
B. subtilis 168 [1], first compound 0.0155 µg/mL, partner 0.125 µg/mL | 0.0115
B. subtilis 168 [1], first compound 0.031 µg/mL, partner 0.0312 µg/mL | 0.041
B. subtilis 168 [1], first compound 0.031 µg/mL, partner 0.0625 µg/mL | 0.028
B. subtilis 168 [1], first compound 0.031 µg/mL, partner 0.125 µg/mL | 0.0186
S. aureus DSM 20231 [2], first compound 0.039 µg/mL, partner 0.06 µg/mL | 0.611
S. aureus DSM 20231 [2], first compound 0.039 µg/mL, partner 0.12 µg/mL | 0.449
S. aureus DSM 20231 [2], first compound 0.078 µg/mL, partner 0.06 µg/mL | 0.588
S. aureus DSM 20231 [2], first compound 0.078 µg/mL, partner 0.12 µg/mL | 0.478
S. aureus DSM 20231 [2], first compound 0.156 µg/mL, partner 0.06 µg/mL | 0.568
S. aureus DSM 20231 [2], first compound 0.156 µg/mL, partner 0.12 µg/mL | 0.445
S. aureus DSM 20231 [2], first compound 0.312 µg/mL, partner 0.06 µg/mL | 0.518
S. aureus DSM 20231 [2], first compound 0.312 µg/mL, partner 0.12 µg/mL | 0.408
S. aureus Newman [3], first compound 0.039 µg/mL, partner 0.0075 µg/mL | 0.669
S. aureus Newman [3], first compound 0.039 µg/mL, partner 0.015 µg/mL | 0.529
S. aureus Newman [3], first compound 0.039 µg/mL, partner 0.03 µg/mL | 0.0684

Details | fitness
B. subtilis 168 [1], first compound 0.0625 µg/mL, partner 0.0312 µg/mL | 0.0617
B. subtilis 168 [1], first compound 0.0625 µg/mL, partner 0.0625 µg/mL | 0.0437
B. subtilis 168 [1], first compound 0.0625 µg/mL, partner 0.125 µg/mL | 0.0547
B. subtilis 168 [1], first compound 0.125 µg/mL, partner 0.0312 µg/mL | 0.062
B. subtilis 168 [1], first compound 0.125 µg/mL, partner 0.0625 µg/mL | 0.044
B. subtilis 168 [1], first compound 0.125 µg/mL, partner 0.125 µg/mL | 0.05
B. subtilis 168 [1], first compound 0.25 µg/mL, partner 0.0312 µg/mL | 0.0545
B. subtilis 168 [1], first compound 0.25 µg/mL, partner 0.0625 µg/mL | 0.0527
B. subtilis 168 [1], first compound 0.25 µg/mL, partner 0.125 µg/mL | 0.0632
B. subtilis 168 [1], first compound 0.5 µg/mL, partner 2 µg/mL | 0.0626
B. subtilis 168 [1], first compound 0.5 µg/mL, partner 4 µg/mL | 0.0595
B. subtilis 168 [1], first compound 0.5 µg/mL, partner 8 µg/mL | 0.043
B. subtilis 168 [1], first compound 1 µg/mL, partner 2 µg/mL | 0.0496
B. subtilis 168 [1], first compound 1 µg/mL, partner 4 µg/mL | 0.0443
B. subtilis 168 [1], first compound 1 µg/mL, partner 8 µg/mL | 0.0259
B. subtilis 168 [1], first compound 2 µg/mL, partner 2 µg/mL | 0.0811
B. subtilis 168 [1], first compound 2 µg/mL, partner 4 µg/mL | 0.0907
B. subtilis 168 [1], first compound 2 µg/mL, partner 8 µg/mL | 0.0539
S. aureus DSM 20231 [2], first compound 0.039 µg/mL, partner 0.0075 µg/mL | 0.674
S. aureus DSM 20231 [2], first compound 0.039 µg/mL, partner 0.015 µg/mL | 0.612
S. aureus DSM 20231 [2], first compound 0.039 µg/mL, partner 0.03 µg/mL | 0.543
S. aureus DSM 20231 [2], first compound 0.078 µg/mL, partner 0.0075 µg/mL | 0.668
S. aureus DSM 20231 [2], first compound 0.078 µg/mL, partner 0.015 µg/mL | 0.634
S. aureus DSM 20231 [2], first compound 0.078 µg/mL, partner 0.03 µg/mL | 0.554
S. aureus DSM 20231 [2], first compound 0.156 µg/mL, partner 0.0075 µg/mL | 0.636
S. aureus DSM 20231 [2], first compound 0.156 µg/mL, partner 0.015 µg/mL | 0.603
S. aureus DSM 20231 [2], first compound 0.156 µg/mL, partner 0.03 µg/mL | 0.536
S. aureus DSM 20231 [2], first compound 0.312 µg/mL, partner 0.0075 µg/mL | 0.574
S. aureus DSM 20231 [2], first compound 0.312 µg/mL, partner 0.015 µg/mL | 0.549
S. aureus DSM 20231 [2], first compound 0.312 µg/mL, partner 0.03 µg/mL | 0.491
S. aureus Newman [3], first compound 0.078 µg/mL, partner 0.0075 µg/mL | 0.657
S. aureus Newman [3], first compound 0.078 µg/mL, partner 0.015 µg/mL | 0.498
S. aureus Newman [3], first compound 0.078 µg/mL, partner 0.03 µg/mL | 0.0551
S. aureus Newman [3], first compound 0.156 µg/mL, partner 0.0075 µg/mL | 0.558
S. aureus Newman [3], first compound 0.156 µg/mL, partner 0.015 µg/mL | 0.432
S. aureus Newman [3], first compound 0.156 µg/mL, partner 0.03 µg/mL | 0.046
S. aureus Newman [3], first compound 0.312 µg/mL, partner 0.0075 µg/mL | 0.354
S. aureus Newman [3], first compound 0.312 µg/mL, partner 0.015 µg/mL | 0.165
S. aureus Newman [3], first compound 0.312 µg/mL, partner 0.03 µg/mL | 0.0657
S. aureus Newman [3], first compound 0.625 µg/mL, partner 0.0075 µg/mL | 0.0357
S. aureus Newman [3], first compound 0.625 µg/mL, partner 0.015 µg/mL | 0.019
S. aureus Newman [3], first compound 0.625 µg/mL, partner 0.03 µg/mL | 0.0143
S. aureus Newman [3], first compound 1.25 µg/mL, partner 0.0075 µg/mL | 0.0365
S. aureus Newman [3], first compound 1.25 µg/mL, partner 0.015 µg/mL | 0.0045
S. aureus Newman [3], first compound 1.25 µg/mL, partner 0.03 µg/mL | 0.0158
S. aureus Newman [3], first compound 2.5 µg/mL, partner 0.0075 µg/mL | 0.0488
S. aureus Newman [3], first compound 2.5 µg/mL, partner 0.015 µg/mL | 0.0142
S. aureus Newman [3], first compound 2.5 µg/mL, partner 0.03 µg/mL | 0.0162
S. pneumoniae D39V [4], first compound 0.0018 µg/mL, partner 0.005 µg/mL | 0.979
S. pneumoniae D39V [4], first compound 0.0018 µg/mL, partner 0.01 µg/mL | 0.976
S. pneumoniae D39V [4], first compound 0.0018 µg/mL, partner 0.02 µg/mL | 0.987
S. pneumoniae D39V [4], first compound 0.0018 µg/mL, partner 0.0312 µg/mL | 0.13
S. pneumoniae D39V [4], first compound 0.0018 µg/mL, partner 0.0625 µg/mL | 0.0856
S. pneumoniae D39V [4], first compound 0.0018 µg/mL, partner 0.125 µg/mL | 0.0466
S. pneumoniae D39V [4], first compound 0.0035 µg/mL, partner 0.005 µg/mL | 0.973
S. pneumoniae D39V [4], first compound 0.0035 µg/mL, partner 0.01 µg/mL | 0.976
S. pneumoniae D39V [4], first compound 0.0035 µg/mL, partner 0.02 µg/mL | 0.964
S. pneumoniae D39V [4], first compound 0.0035 µg/mL, partner 0.0312 µg/mL | 0.108
S. pneumoniae D39V [4], first compound 0.0035 µg/mL, partner 0.0625 µg/mL | 0.0929
S. pneumoniae D39V [4], first compound 0.0035 µg/mL, partner 0.125 µg/mL | 0.0516
S. pneumoniae D39V [4], first compound 0.007 µg/mL, partner 0.005 µg/mL | 0.801
S. pneumoniae D39V [4], first compound 0.007 µg/mL, partner 0.01 µg/mL | 0.827
S. pneumoniae D39V [4], first compound 0.007 µg/mL, partner 0.02 µg/mL | 0.833
S. pneumoniae D39V [4], first compound 0.007 µg/mL, partner 0.0312 µg/mL | 0.0633
S. pneumoniae D39V [4], first compound 0.007 µg/mL, partner 0.0625 µg/mL | 0.0639
S. pneumoniae D39V [4], first compound 0.007 µg/mL, partner 0.125 µg/mL | 0.046

Details | Bliss interaction score
B. subtilis 168 [5] | 0.0581
S. aureus DSM 20231 [6] | -0.0497
S. aureus Newman [7] | 0.0354
S. pneumoniae D39V [8] | -0.0434
